Calls of active or inactive are those of the source. No cut-off for these calls is given here.
What was measured:
[1] = (§1) Inhibition of dsDNA-induced cGAS signaling pathway in mouse RAW-Lucia ISG cells preincubated with compound for 24 hrs followed by HT-DNA addition and measured after 24 hrs by QUANTI-Luc luciferase reagent based assay; format: cell-based
RAW-Lucia ISG = assay: as §1; format: cell-based; details: time 48.0 hrs
[2] = biological target: T1, Protein cereblon/Cyclic GMP-AMP synthase (Homo sapiens, UniProt Q96SW2+Q8N884); assay: PROTAC activity at CRBN/cGAS in human THP-1 cells assessed as induction of cGAS degradation preincubated with compound for 40 hrs followed by HT-DNA stimulation and measured after 8 hrs by Western blot analysis; format: cell-based
[3] = biological target: T2, Protein cereblon/Cyclic GMP-AMP synthase (Mus musculus) (UniProt Q8C6L5+Q8C7D2); assay: (§2) PROTAC activity at CRBN/cGAS in mouse RAW264.7 cells assessed as induction of cGAS degradation preincubated with compound for 40 hrs followed by HT-DNA stimulation and measured after 8 hrs by Western blot analysis; format: cell-based; details: time 48.0 hrs
[4] = biological target: Protein cereblon/Cyclic GMP-AMP synthase (Mus musculus, UniProt Q8C6L5+Q8C7D2); assay: as §2; format: cell-based
[5] = biological target: T1, Protein cereblon/Cyclic GMP-AMP synthase; assay: PROTAC activity at CRBN/cGAS in human THP-1 cells assessed as induction of cGAS degradation at 10 uM preincubated with lenalidomide for 2 hrs followed by compound addition and measured after 48 hrs by Western blot analysis; format: cell-based
Target sequence in this assay (Q8N884 whole entry, looked up): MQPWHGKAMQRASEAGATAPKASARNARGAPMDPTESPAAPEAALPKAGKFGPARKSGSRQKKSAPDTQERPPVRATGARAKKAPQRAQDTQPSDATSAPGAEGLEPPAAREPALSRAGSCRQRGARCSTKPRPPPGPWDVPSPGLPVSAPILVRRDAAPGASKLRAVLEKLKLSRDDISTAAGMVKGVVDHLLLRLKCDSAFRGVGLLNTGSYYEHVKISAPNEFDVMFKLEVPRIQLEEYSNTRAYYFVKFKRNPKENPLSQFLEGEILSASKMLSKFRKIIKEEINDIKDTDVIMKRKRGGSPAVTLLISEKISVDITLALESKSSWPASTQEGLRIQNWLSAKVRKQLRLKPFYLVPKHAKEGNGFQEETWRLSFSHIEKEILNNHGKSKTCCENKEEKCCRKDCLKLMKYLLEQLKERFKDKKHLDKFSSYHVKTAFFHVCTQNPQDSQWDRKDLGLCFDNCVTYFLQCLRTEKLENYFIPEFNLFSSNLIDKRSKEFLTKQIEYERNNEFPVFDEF
Target sequence in this assay (Q96SW2 whole entry, looked up): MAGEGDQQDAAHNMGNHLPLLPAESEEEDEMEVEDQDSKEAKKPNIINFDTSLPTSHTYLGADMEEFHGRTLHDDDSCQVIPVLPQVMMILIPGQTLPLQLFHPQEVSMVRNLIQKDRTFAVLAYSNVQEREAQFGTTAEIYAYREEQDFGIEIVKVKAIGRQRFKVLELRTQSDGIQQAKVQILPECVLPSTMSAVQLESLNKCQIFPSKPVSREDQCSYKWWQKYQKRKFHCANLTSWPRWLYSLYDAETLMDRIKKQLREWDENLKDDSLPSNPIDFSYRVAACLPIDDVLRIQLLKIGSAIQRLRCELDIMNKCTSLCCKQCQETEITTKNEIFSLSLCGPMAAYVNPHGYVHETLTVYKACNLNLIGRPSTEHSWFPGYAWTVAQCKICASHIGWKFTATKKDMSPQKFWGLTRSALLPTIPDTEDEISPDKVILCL

[6] = biological target: Cyclic GMP-AMP synthase (Homo sapiens) (UniProt Q8N884); assay: Inhibition of cGAMP-induced cGAS signaling pathway in human THP1-Lucia ISG cells at 0.2 to 20 uM preincubated with compound for 2 hrs followed by cGAMP addition and measured after 24 hrs by QUANTI-Luc luciferase reagent based assay; format: cell-based; details: dose 0.2-20 µM, time 26.0 hrs
THP-1 [7] = assay: Inhibition of ds-DNA induced cGAS-STING signaling pathway in human THP-1 cells assessed as reduction in TBK1 phosphorylation preincubated with compound for 40 hrs followed by HT-DNA addition and measured after 8 hrs by Western blot analysis; format: cell-based; details: dose 0.7-20 µM, time 48.0 hrs
RAW264.7 [8] = assay: Inhibition of ds-DNA induced cGAS-STING signaling pathway in mouse RAW264.7 cells assessed as reduction in IRF3 phosphorylation preincubated with compound for 40 hrs followed by HT-DNA addition and measured after 8 hrs by Western blot analysis; format: cell-based; details: dose 0.7-20 µM, time 48.0 hrs
THP-1 [9] = assay: Downregulation of CXCL10 mRNA expression in human THP-1 cells preincubated with compound for 40 hrs followed by HT-DNA addition and measured after 8 hrs by qRT-PCR analysis; format: functional, cell-based; details: dose 1.25-10 µM, time 48.0 hrs
THP-1 [10] = assay: Downregulation of IFNB mRNA expression level in ISD-induced human THP-1 cells at 20 uM preincubated with compound for 12 hrs followed by 45-bp immune stimulatory DNA addition and measured after 8 hrs by RT-qPCR analysis; format: functional, cell-based; details: time 20.0 hrs
THP-1 [11] = assay: Cytotoxicity against human THP-1 cells assessed as reduction in cell viability upto 60 uM incubated for 48 hrs by CCK8 assay; format: toxicity, cell-based; details: thp-1, 48 h
RAW264.7 [12] = assay: Cytotoxicity against mouse RAW264.7 cells assessed as reduction in cell viability upto 60 uM incubated for 48 hrs by CCK8 assay; format: toxicity, cell-based; details: raw264.7, 48 h
[13] = Cytotoxicity against mouse RAW-Lucia ISG cells assessed as reduction in cell viability at >30 uM incubated for 48 hrs by CCK8 assay; format: toxicity, cell-based
[14] = Cmax in male C57BL/6 mouse at 1 mg/kg, iv measured after 24 hrs by LC-MS/MS analysis; format: ADME, organism-based; details: in vivo
[15] = AUC (0 to 24 hrs) in male C57BL/6 mouse at 1 mg/kg, iv measured after 24 hrs by LC-MS/MS analysis; format: ADME, organism-based; details: in vivo
[16] = Volume of distribution in male C57BL/6 mouse at 1 mg/kg, iv measured after 24 hrs by LC-MS/MS analysis; format: ADME, organism-based; details: in vivo
[17] = Cmax in male C57BL/6 mouse at 20 mg/kg, ip measured after 24 hrs by LC-MS/MS analysis; format: ADME, organism-based; details: in vivo
[18] = MRT (0 to 24 hrs) in male C57BL/6 mouse at 20 mg/kg, ip measured after 24 hrs by LC-MS/MS analysis; format: ADME, organism-based; details: in vivo
[19] = Drug distribution in male C57BL/6 mouse colon at 20 mg/kg, ip measured after 2 to 24 hrs by LC-MS/MS analysis; format: ADME, organism-based; details: in vivo, time 2-24 hrs
Mus musculus [20] = assay: Anti-inflammatory activity in DSS-induced ulcerative colitis C57BL/6 mouse model assessed as decrease in body weight loss at 20 to 50 mg/kg/day, ip preadministered with DSS for 7 days followed by replacement with ultrapure water for 3 days with subsequent compound administration starting from day 4 to 10 and measured on day 11; format: functional, organism-based; details: dose 20-50 mg/kg/day, time 8.0 day
Mus musculus [21] = assay: Anti-inflammatory activity in DSS-induced ulcerative colitis C57BL/6 mouse model assessed as normal morphological appearance of spleen at 20 to 50 mg/kg/day, ip preadministered with DSS for 7 days followed by replacement with ultrapure water for 3 days with subsequent compound administration starting from day 4 to 10 and measured on day 11 by H and E staining based analysis; format: functional, organism-based; details: dose 20-50 mg/kg/day, time 8.0 day
[22] = biological target: T2, Protein cereblon/Cyclic GMP-AMP synthase (Mus musculus); assay: In vivo inhibition of cGAS signaling pathway in DSS-induced ulcerative colitis C57BL/6 mouse model assessed as reduction in STING phosphorylation level in colon preadministered with DSS for 7 days followed by replacement with ultrapure water for 3 days with subsequent intraperitoneal compound administration starting from day 4 to 10 and measured on day 11 by Western blot analysis; format: functional, organism-based; details: dose 20-50 mg/kg/day, route ip, time 8.0 day
[23] = biological target: T2, Protein cereblon/Cyclic GMP-AMP synthase (Mus musculus); assay: In vivo inhibition of cGAS signaling pathway in DSS-induced ulcerative colitis C57BL/6 mouse model assessed as reduction in TBK1 phosphorylation level in colon preadministered with DSS for 7 days followed by replacement with ultrapure water for 3 days with subsequent intraperitoneal compound administration starting from day 4 to 10 and measured on day 11 by Western blot analysis; format: functional, organism-based; details: dose 20-50 mg/kg/day, route ip, time 8.0 day
[24] = biological target: T2, Protein cereblon/Cyclic GMP-AMP synthase (Mus musculus); assay: In vivo inhibition of cGAS signaling pathway in DSS-induced ulcerative colitis C57BL/6 mouse model assessed as reduction in IRF3 phosphorylation level in colon preadministered with DSS for 7 days followed by replacement with ultrapure water for 3 days with subsequent intraperitoneal compound administration starting from day 4 to 10 and measured on day 11 by Western blot analysis; format: functional, organism-based; details: dose 20-50 mg/kg/day, route ip, time 8.0 day
Mus musculus [25] = assay: Anti-inflammatory activity in DSS-induced ulcerative colitis C57BL/6 mouse model assessed as reduction in TNF-alpha mRNA level in colon at 20 to 50 mg/kg/day, ip preadministered with DSS for 7 days followed by replacement with ultrapure water for 3 days with subsequent compound administration starting from day 4 to 10 and measured on day 11 by qRT-PCR analysis; format: functional, organism-based; details: dose 20-50 mg/kg/day, time 8.0 day
Mus musculus [26] = assay: Anti-inflammatory activity in DSS-induced ulcerative colitis C57BL/6 mouse model assessed as reduction in IL-6 mRNA level in colon at 20 to 50 mg/kg/day, ip preadministered with DSS for 7 days followed by replacement with ultrapure water for 3 days with subsequent compound administration starting from day 4 to 10 and measured on day 11 by qRT-PCR analysis; format: functional, organism-based; details: dose 20-50 mg/kg/day, time 8.0 day

T2 sequence (Q8C6L5 whole entry, looked up): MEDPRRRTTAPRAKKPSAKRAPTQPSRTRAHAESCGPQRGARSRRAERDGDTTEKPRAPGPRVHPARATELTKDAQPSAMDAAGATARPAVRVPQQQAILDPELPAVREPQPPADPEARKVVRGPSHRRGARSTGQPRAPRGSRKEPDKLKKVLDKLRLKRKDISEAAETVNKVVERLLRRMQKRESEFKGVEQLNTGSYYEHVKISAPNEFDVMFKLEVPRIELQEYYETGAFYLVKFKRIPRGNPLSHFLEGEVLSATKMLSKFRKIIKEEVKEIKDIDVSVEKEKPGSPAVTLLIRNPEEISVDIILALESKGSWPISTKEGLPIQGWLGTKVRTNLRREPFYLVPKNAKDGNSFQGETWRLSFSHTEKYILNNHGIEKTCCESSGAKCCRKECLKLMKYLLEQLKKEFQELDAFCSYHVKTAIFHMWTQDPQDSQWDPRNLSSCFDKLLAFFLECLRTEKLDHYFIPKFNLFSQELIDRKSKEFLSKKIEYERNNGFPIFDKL
T2 sequence (Q8C7D2 whole entry, looked up): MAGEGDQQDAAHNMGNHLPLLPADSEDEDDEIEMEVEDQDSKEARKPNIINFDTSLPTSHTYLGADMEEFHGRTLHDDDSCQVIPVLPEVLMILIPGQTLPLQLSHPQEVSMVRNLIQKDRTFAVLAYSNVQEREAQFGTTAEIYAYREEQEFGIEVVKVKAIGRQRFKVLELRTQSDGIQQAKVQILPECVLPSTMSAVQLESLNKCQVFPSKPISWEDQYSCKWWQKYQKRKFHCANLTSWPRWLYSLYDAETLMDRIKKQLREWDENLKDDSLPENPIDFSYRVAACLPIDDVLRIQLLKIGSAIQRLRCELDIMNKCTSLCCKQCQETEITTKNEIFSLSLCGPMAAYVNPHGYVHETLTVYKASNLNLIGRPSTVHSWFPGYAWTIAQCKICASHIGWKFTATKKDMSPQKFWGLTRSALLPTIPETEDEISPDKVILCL
Cyclic GMP-AMP synthase (Homo sapiens), sequence (Q8N884 whole entry): as the sequence (Q8N884 whole entry, looked up) above
Protein cereblon/Cyclic GMP-AMP synthase (Mus musculus, UniProt Q8C6L5+Q8C7D2), sequence (Q8C6L5 whole entry): as the sequence (Q8C6L5 whole entry, looked up) above
Protein cereblon/Cyclic GMP-AMP synthase (Mus musculus, UniProt Q8C6L5+Q8C7D2), sequence (Q8C7D2 whole entry): as the sequence (Q8C7D2 whole entry, looked up) above

Cn1ccc(-c2cc(Cl)c(Cl)c3[nH]c4c(c23)CN(C(=O)CNC(=O)CCCC#Cc2cccc3c2CN(C2CCC(=O)NC2=O)C3=O)CC4)n1 (stereo not drawn)
IC50 [1]: 4.8 µM | inhibition (RAW-Lucia ISG): Dose-dependent-effect | DC50 [2]: 0.9 µM | Activity ([2]; time 48.0 hrs): Dose-dependent-effect | Activity [3]: Dose-dependent-effect | DC50 [4]: 4.6 µM | Activity [5]: inactive | inhibition [6]: inactive | inhibition (THP-1 [7]): Dose-dependent-effect | inhibition (RAW264.7 [8]): Dose-dependent-effect | Activity (THP-1 [9]): Dose-dependent-effect | Activity (THP-1 [10]): Active | Activity (THP-1 [11]): Non-toxic | Activity (RAW264.7 [12]): Non-toxic | Activity [13]: Toxic | Cmax [14]: 1610 ng/mL | AUC(0-t) at 24 h [15]: 530 ng·h/mL | Vd [16]: 8.1 L/kg | Cmax [17]: 248 ng/mL | MRT last at 24 h [18]: 7.9 h | Drug uptake [19]: Active | Activity (Mus musculus [20]): Active | Activity (Mus musculus [21]): Active | inhibition [22]: Dose-dependent-effect | inhibition [23]: Dose-dependent-effect | inhibition [24]: Dose-dependent-effect | Activity (Mus musculus [25]): Active | Activity (Mus musculus [26]): Active
